pEC50: −log10 of the molar value.

We go through 16 molecules from US20140221354A1, “IMIDAZO [1,2-a]PYRIDINE COMPOUNDS FOR USE IN THERAPY” (EMBLEM Technology Transfer GmbH, priority 2011, published 2014).

The test system of this assay is CellSensor® HRE-bla HCT-116 stably transfected reporter cell line. The assay is described as follows: HIF/HRE reporter assay. Format: cell-based. As to conditions: Homo sapiens, inhibition of activated HIF signaling response, hypoxic conditions induced with deferoxamine (DFO), 24 h incubation, blue/green emission ratio, read-out: Evaluation. The protocol: Inhibition of an activated HIF signaling response under chemically-induced hypoxic conditions due to compound treatment was determined using the CellSensor® HRE-bla HCT-116 stably transfected reporter cell line from Invitrogen according to the manufacturer's instructions.
Cells were maintained as described previously and seeded into 384-well, clear-bottom plates (Corning 3712) at 15000 cells/well in 32 μl assay medium (Opti-MEM [Invitrogen], 0.5% FBS, 100 U/ml penicillin, 100 μg/ml streptomycin, 0.1 mM non-essential amino acids [NEAA], 1 mM sodium pyruvate, 5 mM HEPES [pH 7.3]). Following a 2 h incubation period, compounds (4 μl) were subsequently added to the cells at 10× concentrations in 5% DMSO and incubated under normal conditions for 30 min. To induce hypoxic conditions, 4 μl of a 2 mM deferoxamine (DFO) solution was added to the cells followed by 24 h incubation under standard assay conditions (as described). Control wells included wells containing only medium (no cells) and wells treated with 0.5% DMSO instead of compound.
Prior to the readout, the Substrate Loading Solution was prepared as described in the manufacturer's protocol and 10 μl added to each well. Following a further 2 h incubation period at room temperature and in the dark, fluorescence was measured at two wavelengths (blue channel: ex. 409 nm, em. 460 nm; green channel: ex. 409 nm, em. 530 nm) on a PerkinElmer Envision HTS. For the analysis, the average signal of the cell-free wells at 460 nm and 530 nm was first subtracted from the blue and green channel data, respectively. The blue/green emission ratios were then calculated for each well, dividing the background-corrected blue emission values by the background-corrected green emission values. […] values were determined from these ratios using GraphPad Prism (Prism 5, GraphPad software, Inc.).
A general note: In a reporter assay the amount or activity of a reporter protein is the signal.
`N#Cc1ccc(-c2nc3ccc(-c4cccnc4)cn3c2CN2CCCNCC2)cc1` [Example 29, 4-(3-((1,4-diazepan-1-yl)methyl)-6-(pyridin-3-yl)imidazo[1,2-a]pyridin-2-yl)benzonitrile]: the pEC50 was under 6.00.
For the molecule `COc1ccc(-c2nc3ccc(-c4ccccc4)cn3c2CN2CCNC(=O)C2)cc1` [Example 30, 4-((2-(4-methoxyphenyl)-6-phenylimidazo[1,2-a]pyridin-3-yl)methyl)piperazin-2-one], the pEC50 is under 6.00.
In the case of `CN1CCCN(Cc2c(-c3ccc(Cl)cc3)nc3ccc(-c4ccccc4)cn23)CC1` [Example 31, 2-(4-chlorophenyl)-3-((4-methyl-1,4-diazepan-1-yl)methyl)-6-phenylimidazo[1,2-a]pyridine], the pEC50 was over 6.30.
For `O=C1CN(Cc2c(-c3ccc(Cl)cc3)nc3ccc(-c4ccccc4)cn23)CCN1` [Example 32, 4-((2-(4-chlorophenyl)-6-phenylimidazo[1,2-a]pyridin-3-yl)methyl)piperazin-2-one], the pEC50 was under 6.00.
Take `N#Cc1ccc(-c2nc3ccc(-c4ccccc4)cn3c2CN2CCNC(=O)C2)cc1` [Example 33, 4-(3-((3-oxopiperazin-1-yl)methyl)-6-phenylimidazo[1,2-a]pyridin-2-yl)benzonitrile]: the pEC50 was under 6.00.
On to `CN1CCCN(Cc2c(-c3ccc(C#N)cc3)nc3ccc(-c4ccccc4)cn23)CC1` [Example 34, 4-(3-((4-methyl-1,4-diazepan-1-yl)methyl)-6-phenylimidazo[1,2-a]pyridin-2-yl)benzonitrile], for which the pEC50 was over 6.30.
`N#Cc1ccc(-c2nc3ccc(-c4ccccc4)cn3c2CN2CCNC(=O)C2)s1` [Example 35, 5-(3-((3-oxopiperazin-1-yl)methyl)-6-phenylimidazo[1,2-a]pyridin-2-yl)thiophene-2-carbonitrile]: the pEC50 is under 6.00.
For the molecule `CN1CCCN(Cc2c(-c3ccc(C#N)s3)nc3ccc(-c4ccccc4)cn23)CC1` [Example 36, 5-(3-((4-methyl-1,4-diazepan-1-yl)methyl)-6-phenylimidazo[1,2-a]pyridin-2-yl)thiophene-2-carbonitrile], the pEC50 was over 6.30.
Regarding `N#Cc1ccc(-c2nc3ccc(-c4cn[nH]c4)cn3c2CN2CCCNCC2)cc1` [Example 37, 4-(3-((1,4-diazepan-1-yl)methyl)-6-(1H-pyrazol-4-yl)imidazo[1,2-a]pyridin-2-yl)benzonitrile], the pEC50 was under 6.00.
In the case of `Cn1cccc1-c1ccc2nc(-c3ccc(C#N)cc3)c(CN3CCCNCC3)n2c1` [Example 38, 4-(3-((1,4-diazepan-1-yl)methyl)-6-(1-methyl-1H-pyrrol-2-yl)imidazo[1,2-a]pyridin-2-yl)benzonitrile], the pEC50 is 6.00 to 6.30.
With `N#Cc1ccc(-c2nc3ccc(-c4cnco4)cn3c2CN2CCCNCC2)cc1` [Example 39, 4-(3-((1,4-diazepan-1-yl)methyl)-6-(oxazol-5-yl)imidazo[1,2-a]pyridin-2-yl)benzonitrile], the pEC50 is under 6.00.
As to `N#Cc1ccc(-c2nc3ccc(-c4ccc(Cl)cc4)cn3c2CN2CCCNCC2)cc1` [Example 40, 4-(3-((1,4-diazepan-1-yl)methyl)-6-(4-chlorophenyl)imidazo[1,2-a]pyridin-2-yl)benzonitrile], the pEC50 was over 6.30.
For the molecule `COc1ccc(-c2ccc3nc(-c4ccc(C#N)cc4)c(CN4CCCNCC4)n3c2)cc1` [Example 41, 4-(3-((1,4-diazepan-1-yl)methyl)-6-(4-methoxyphenyl)imidazo[1,2-a]pyridin-2-yl)benzonitrile], the pEC50 is over 6.30.
`N#Cc1ccc(-c2nc3ccc(-c4ccc(C(N)=O)cc4)cn3c2CN2CCCNCC2)cc1` [Example 42, 4-(3-((1,4-diazepan-1-yl)methyl)-2-(4-cyanophenyl)imidazo[1,2-a]pyridin-6-yl)benzamide]: the pEC50 was under 6.00.
`N#Cc1ccc(-c2ccc3nc(-c4ccc(C#N)cc4)c(CN4CCCNCC4)n3c2)cc1` [Example 43, 4,4′-(3-((1,4-diazepan-1-yl)methyl)imidazo[1,2-a]pyridine-2,6-diyl)dibenzonitrile]: the pEC50 is over 6.30.
Consider `N#Cc1ccc(-c2nc3ccc(-c4ccsc4)cn3c2CN2CCCNCC2)cc1` [Example 44, 4-(3-((1,4-diazepan-1-yl)methyl)-6-(thiophen-3-yl)imidazo[1,2-a]pyridin-2-yl)benzonitrile], for which the pEC50 was over 6.30.
